Assay results taken from US20080261994A1, “CYCLOPROPANE COMPOUNDS AND PHARMACEUTICAL USE THEREOF” (Japan Tobacco Inc., priority 2003, published 2008).
Where two headings read alike, the source gives them in different places.

Key:
Assay type in all cases: biochemical
aggrecanase-1 = biological target: T1, aggrecanase-1 (Homo sapiens, UniProt O75173); assay: Aggrecanase-1 inhibitory action (Particle Assay, GAG release from aggrecan-containing polyacrylamide particles)
T1 sequence (O75173 213-837): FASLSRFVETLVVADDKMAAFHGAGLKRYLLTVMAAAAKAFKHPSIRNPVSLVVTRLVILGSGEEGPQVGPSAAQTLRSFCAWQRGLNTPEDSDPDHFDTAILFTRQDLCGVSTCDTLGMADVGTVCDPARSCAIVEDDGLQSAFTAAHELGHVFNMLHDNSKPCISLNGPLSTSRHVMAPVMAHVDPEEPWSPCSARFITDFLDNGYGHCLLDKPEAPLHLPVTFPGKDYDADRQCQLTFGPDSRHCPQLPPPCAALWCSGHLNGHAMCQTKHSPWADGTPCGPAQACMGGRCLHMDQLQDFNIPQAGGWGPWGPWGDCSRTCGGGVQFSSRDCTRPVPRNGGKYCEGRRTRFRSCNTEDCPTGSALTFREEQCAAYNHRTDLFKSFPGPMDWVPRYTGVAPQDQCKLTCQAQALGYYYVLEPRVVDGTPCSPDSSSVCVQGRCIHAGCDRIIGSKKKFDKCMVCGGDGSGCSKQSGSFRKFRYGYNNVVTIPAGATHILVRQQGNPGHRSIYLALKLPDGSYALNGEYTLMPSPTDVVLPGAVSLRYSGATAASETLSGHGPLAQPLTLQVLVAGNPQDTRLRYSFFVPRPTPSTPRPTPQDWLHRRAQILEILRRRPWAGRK
Summary of the method: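 Readout was dimethylmethylene blue absorbance (595 nm) of glycosaminoglycan liberated into supernatant, calibrated with whale chondroitin sulfate. Substrate was aggrecan in polyacrylamide particles, digested 15 h at 37° C in Tris-HCl; TC50 (μM) derived from inhibition relative to no-enzyme and no-inhibitor controls.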

MMP-1 = biological target: T2, MMP-1 (Homo sapiens, UniProt P03956); assay: MMP-1 inhibitory action (Type I collagen Activity Measurement kit, FITC-labeled collagen type I)
T2 sequence (P03956 100-469): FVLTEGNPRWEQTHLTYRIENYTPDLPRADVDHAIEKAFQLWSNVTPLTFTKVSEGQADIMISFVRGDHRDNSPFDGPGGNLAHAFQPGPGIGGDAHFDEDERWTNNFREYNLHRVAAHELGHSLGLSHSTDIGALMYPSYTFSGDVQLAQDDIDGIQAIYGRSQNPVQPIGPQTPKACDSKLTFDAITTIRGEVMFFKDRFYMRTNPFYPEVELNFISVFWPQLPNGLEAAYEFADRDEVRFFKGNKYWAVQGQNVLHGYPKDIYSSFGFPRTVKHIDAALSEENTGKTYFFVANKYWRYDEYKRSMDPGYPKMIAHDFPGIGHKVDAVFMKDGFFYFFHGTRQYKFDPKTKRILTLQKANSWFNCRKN

Recombinant Human MMP-13 = biological target: T3, Recombinant Human MMP-13 (Homo sapiens, UniProt P45452); assay: MMP-13 inhibitory activity (MMP-13 specific fluorescent substrate with quencher)
T3 construct: purchased R&D systems 511-MM
Summary of the method: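 IC50 (μM) derived from % inhibition, normalised to wells without enzyme and without inhibitor, fluorescence read at 325/405 nm. Enzyme and compound preceded addition of the quenched 7-MCA…DPA substrate; Tris-HCl buffer, 25 °C for 1 h, acetic-acid stop.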

[1] = Experimental Example 1, read-out: IC50 AG1
[2] = Experimental Example 2, read-out: IC50 MMP1
[3] = Experimental Example 3, read-out: IC50 MMP13
[4] = aggrecanase-1 inhibitory action, read-out: IC50 AG1 (Experimental Example 1)
[5] = MMP-1 inhibitory action, FITC-labeled collagen type I, 37° C. for 3 hr, read-out: IC50 MMP1 (Experimental Example 2)
[6] = Recombinant Human MMP-13, fluorescent substrate, 25° C. for 1 h, read-out: IC50 MMP13 (Experimental Example 3)

Row | Structure (SMILES) | IC50 (aggrecanase-1; [1]) [nM] | IC50 (MMP-1; [2]) [nM] | IC50 (Recombinant Human MMP-13; [3]) [nM] | IC50 (aggrecanase-1; [4]) [nM] | IC50 (MMP-1; [5]) [nM] | IC50 (Recombinant Human MMP-13; [6]) [nM]
1 | O=C(OCCCc1cccc(C2CC2(NS(=O)(=O)c2ccc(-c3cc(C(F)(F)F)on3)s2)C(=O)O)c1)N1CCOCC1 (stereo not drawn) [Example 2-239] | – | – | – | < 100 | ≥ 1000 | < 100
2 | CC(C)CCN1CCN(S(=O)(=O)N[C@@]2(C(=O)O)C[C@@H]2c2ccccc2)CC1 [Example 2-511] | ≥ 1000 | ≥ 1000 | ≥ 1000 | – | – | –
3 | CC(=O)NCCCC1(c2ccccc2)CC1(NS(=O)(=O)c1ccc(-c2ccc(Cl)cc2)s1)C(=O)O (stereo not drawn) [Example 2-272] | < 100 | ≥ 10000 | < 100 | – | – | –
4 | C[C@]1(c2ccccc2)C[C@@]1(NS(=O)(=O)c1ccc(-c2ccc(C#N)cc2)s1)C(=O)O [Example 2-567] | < 100 | ≥ 1000 | < 1000 | – | – | –
5 | CC1[C@H](c2ccccc2)[C@]1(NS(=O)(=O)c1ccc(-n2cc(C#N)cn2)s1)C(=O)O (stereo partly drawn) [Example 2-580] | < 1000 | ≥ 1000 | < 100 | – | – | –
6 | O=C(O)C1(NS(=O)(=O)N2CCN(c3ccc(C(F)(F)F)cn3)CC2)CC1c1ccccc1 (stereo not drawn) [Example 2-68] | – | – | – | ≥ 1000 | ≥ 10000 | < 100
7 | NCC1(c2ccccc2)CC1(NS(=O)(=O)c1ccc(-c2ccc(Cl)cc2)s1)C(=O)O (stereo not drawn) [Example 2-361] | ≥ 1000 | ≥ 10000 | ≥ 1000 | – | – | –
8 | O=C(Nc1cccc(C2CC2(NS(=O)(=O)c2ccc(-c3ccc(Cl)cc3)cc2)C(=O)O)c1)c1cccnc1 (stereo not drawn) [Example 1-64] | – | – | – | < 1000 | ≥ 1000 | < 100
9 | CC1[C@H](c2ccccc2)[C@]1(NS(=O)(=O)c1ccc(-c2cc(C(F)F)on2)s1)C(=O)O (stereo partly drawn) [Example 2-353] | < 100 | < 1000 | < 100 | – | – | –
10 | CN1CCN(C(=O)Cc2ccccc2C2CC2(NS(=O)(=O)c2ccc(-c3ccc(Cl)cc3)s2)C(=O)O)CC1 (stereo not drawn) [Example 2-195] | – | – | – | < 1000 | ≥ 10000 | < 1000
11 | O=C(O)[C@]1(NS(=O)(=O)/C=C/c2ccccc2)C[C@@H]1c1ccccc1 [Example 2-140] | – | – | – | ≥ 10000 | ≥ 10000 | ≥ 1000
12 | O=C(Nc1cccc(C2CC2(NS(=O)(=O)c2ccc(-c3ccc(Cl)cc3)cc2)C(=O)O)c1)c1ccccn1 (stereo not drawn) [Example 1-62] | – | – | – | < 1000 | ≥ 1000 | < 100
13 | O=C(c1cccc(C2CC2(NS(=O)(=O)c2ccc(-c3ccc(Cl)cc3)s2)C(=O)O)c1)N1CCOCC1 (stereo not drawn) [Example 2-73] | – | – | – | < 100 | ≥ 10000 | < 1000
14 | CC1[C@H](c2ccccc2)[C@]1(NS(=O)(=O)c1ccc(-c2ccc(Cl)cn2)s1)C(=O)O (stereo partly drawn) [Example 2-366] | < 100 | < 1000 | < 100 | – | – | –
15 | O=C(O)C1(NS(=O)(=O)c2ccc(-c3ccc(Cl)cc3)s2)CC1C1CCCCC1 (stereo not drawn) [Example 2-41] | – | – | – | < 1000 | ≥ 10000 | < 1000
16 | CC1(c2cccc(F)c2)CC1(NS(=O)(=O)c1ccc(-c2cc(C(F)(F)F)on2)s1)C(=O)O (stereo not drawn) [Example 2-611] | < 100 | < 1000 | ≥ 1000 | – | – | –
17 | CC1(c2cccc(S(C)(=O)=O)c2)CC1(NS(=O)(=O)c1ccc(-c2cc(C(F)(F)F)on2)s1)C(=O)O (stereo not drawn) [Example 2-614] | < 100 | < 1000 | ≥ 1000 | – | – | –
18 | Cn1nc(C(F)(F)F)cc1-c1ccc(S(=O)(=O)NC2(C(=O)O)CC2c2ccccc2)s1 (stereo not drawn) [Example 2-14] | – | – | – | ≥ 10000 | ≥ 10000 | ≥ 10000
19 | O=C(O)C1(NS(=O)(=O)c2ccc(-c3cc(C(F)(F)F)on3)s2)CC1c1cc(CO)on1 (stereo not drawn) [Example 2-317] | < 1000 | ≥ 1000 | < 1000 | – | – | –
20 | O=C(O)[C@]1(NS(=O)(=O)c2ccc(-c3cc(C(F)(F)C(F)(F)F)on3)s2)C[C@@H]1c1ccccc1 [Example 2-111] | – | – | – | ≥ 1000 | ≥ 10000 | < 1000
21 | CCOC(=O)CSCC1(c2ccccc2)CC1(NS(=O)(=O)c1ccc(-c2cc(C(F)(F)F)on2)s1)C(=O)O (stereo not drawn) [Example 2-409] | < 1000 | < 1000 | < 100 | – | – | –
22 | CCNC(=O)OCC1(c2ccccc2)CC1(NS(=O)(=O)c1ccc(-c2cc(C(F)(F)F)on2)s1)C(=O)O (stereo not drawn) [Example 2-321] | < 1000 | ≥ 1000 | < 1000 | – | – | –
23 | O=C(O)C1(NS(=O)(=O)c2ccc(-c3ccc(Cl)cc3)s2)CC1c1ccc(OCc2ccccc2)cc1 (stereo not drawn) [Example 2-225] | – | – | – | ≥ 1000 | ≥ 10000 | < 1000

Continued, values first:

Row | IC50 (aggrecanase-1; [1]) [nM] | IC50 (MMP-1; [2]) [nM] | IC50 (Recombinant Human MMP-13; [3]) [nM] | IC50 (aggrecanase-1; [4]) [nM] | IC50 (MMP-1; [5]) [nM] | IC50 (Recombinant Human MMP-13; [6]) [nM] | Structure (SMILES)
24 | ≥ 1000 | ≥ 10000 | ≥ 1000 | – | – | – | CN(C)c1cc(-c2ccc(S(=O)(=O)N[C@@]3(C(=O)O)C[C@]3(C)c3ccccc3)s2)ccc1Cl [Example 2-488]
25 | – | – | – | < 1000 | ≥ 10000 | < 1000 | O=C(O)[C@]1(NS(=O)(=O)c2ccc(-c3cc(C(F)(F)F)on3)s2)C[C@@H]1c1ccccc1Br [Example 2-193]
26 | < 100 | ≥ 1000 | < 1000 | – | – | – | C[C@]1(c2ccccc2)C[C@@]1(NS(=O)(=O)c1ccc(-c2ccc(Cl)c(F)c2)s1)C(=O)O [Example 2-434]
27 | – | – | – | < 100 | ≥ 1000 | < 100 | CC(F)(F)c1cc(-c2ccc(S(=O)(=O)N[C@@]3(C(=O)O)C[C@@H]3c3ccccc3)s2)ns1 [Example 2-124]
28 | < 100 | ≥ 1000 | < 100 | – | – | – | CC(=O)N1CCC2C(c3ccccc31)C2(NS(=O)(=O)c1ccc(-c2ccc(Cl)cc2)s1)C(=O)O (stereo not drawn) [Example 2-439]
29 | – | – | – | < 100 | ≥ 1000 | < 100 | O=C(O)C1(NS(=O)(=O)c2ccc(-c3ccc(Cl)cc3)s2)CC1c1cccc(OCc2cccnc2)c1 (stereo not drawn) [Example 1-107]
30 | ≥ 1000 | ≥ 10000 | < 1000 | – | – | – | COCCN(C)C(=O)c1ccc(C2(CCCOC(C)=O)CC2(NS(=O)(=O)c2ccc(-c3cc(C(F)(F)F)on3)s2)C(=O)O)cc1 (stereo not drawn) [Example 2-271]
31 | < 100 | ≥ 1000 | < 100 | – | – | – | O=C(O)C1(NS(=O)(=O)c2ccc(-c3ccc(Cl)cc3)s2)C2CCC(O)c3ccccc3C21 (stereo not drawn) [Example 2-412]
32 | < 100 | < 1000 | < 1000 | – | – | – | C[C@]1(c2cccc(F)c2)C[C@@]1(NS(=O)(=O)c1ccc(-c2cc(C(F)(F)F)on2)s1)C(=O)O [Example 2-618]
33 | – | – | – | < 1000 | ≥ 10000 | < 1000 | O=C(O)C1(NS(=O)(=O)c2ccc(-c3ccc(Cl)cc3)s2)CC1(CO)c1ccccc1 (stereo not drawn) [Example 2-229]
34 | < 1000 | ≥ 1000 | < 100 | – | – | – | CC1[C@H](c2ccccc2)[C@]1(NS(=O)(=O)c1ccc(-c2cc(C(N)=O)on2)s1)C(=O)O (stereo partly drawn) [Example 2-578]
35 | – | – | – | ≥ 10000 | ≥ 10000 | ≥ 10000 | O=C(O)C1(NS(=O)(=O)N2CCn3c(nnc3-c3ccccc3)C2)CC1c1ccccc1 (stereo not drawn) [Example 2-126]
36 | – | – | – | < 1000 | ≥ 10000 | < 1000 | Cc1ccc(-c2ccccc2C2CC2(NS(=O)(=O)c2ccc(-c3ccc(Cl)cc3)s2)C(=O)O)cc1 (stereo not drawn) [Example 2-40]
37 | < 100 | ≥ 1000 | < 100 | – | – | – | CC1[C@H](c2ccccc2)[C@]1(NS(=O)(=O)N1CCN(c2ccc(Cl)cn2)CC1)C(=O)O (stereo partly drawn) [Example 2-457]
38 | ≥ 1000 | ≥ 1000 | < 100 | – | – | – | COc1ccc(-c2ccc(S(=O)(=O)N[C@@]3(C(=O)O)C[C@]3(C)c3ccccc3)s2)cc1Cl [Example 2-595]
39 | ≥ 1000 | ≥ 1000 | < 1000 | – | – | – | CC1[C@H](c2ccccc2)[C@]1(NS(=O)(=O)c1ccc2nc(-c3ccccc3)cn2c1)C(=O)O (stereo partly drawn) [Example 2-622]
